The values that follow are results of earlier work, collected in patent publication US20210330644A1, “COMBINATION THERAPY FOR TREATING METASTATIC PROSTATE CANCER” (Progenics Pharmaceuticals, Inc, priority 2018, published 2021).

For this data set, the system named is mCRPC.

With `CNC(=O)c1ccc(N2C(=S)N(c3ccc(C#N)c(C(F)(F)F)c3)C(=O)C2(C)C)cc1F` [enzalutamide], the “proportion of patients with >50% decline in PSA from baseline” value (after progression under abiraterone therapy of any duration) is given as 30-51%. In addition, where the note is “majority of data”, the “benefit in abiraterone-resistant patients” value is “limited benefit”.
